These results are taken from patent US5750550A, “2-(pyrazol-5-yl-oxymethyl)-1,2-benzisothiazol-3 (2H)-One 1, 1-dioxides and compositions and method of use thereof” (Sanofi, priority 1995, dated 1998).

The target in this assay is T1, human leukocyte elastase (Homo sapiens, UniProt P08246).
T1 sequence (P08246 30-267): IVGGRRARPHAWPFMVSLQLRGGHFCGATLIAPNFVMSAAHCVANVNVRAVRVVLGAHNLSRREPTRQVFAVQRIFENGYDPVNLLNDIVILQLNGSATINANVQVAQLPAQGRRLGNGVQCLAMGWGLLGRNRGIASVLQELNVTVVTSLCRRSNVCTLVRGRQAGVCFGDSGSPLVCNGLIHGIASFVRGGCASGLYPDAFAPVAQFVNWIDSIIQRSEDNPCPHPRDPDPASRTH
Nature of the assay: human leukocyte elastase (HLE) inhibitory activity, substrate MeOSuc-Ala-Ala-Pro-Val-pNA. Format: biochemical. The conditions noted are these: pH 7.8, 25° C., steady-state velocities. The procedure:
The test compound (inhibitor) is dissolved in DMSO in a vial to produce an inhibitor stock solution which has a concentration in the range of 200-1000 μM. The inhibitor stock solution is diluted (1:4, 1:16 and 1:64) into assay vials (vials 1, 2 and 3 respectively) containing 2.4 mL of buffer solution (50 mM N-[2-hydroxyethyl] piperazine-N'-[2-ethanesulfonic acid]/NaOH, 500 mM NaCl, pH 7.8 at 25° C.) and DMSO is added so that the total volume in each vial is 3.2 mL. 70 μL, 50 μL, 35 μL and 25 μL of inhibitor from assay vial 1 is placed into the first four wells of a 96-well microtiter plate and each well is made up to 90 μL total volume with the addition of a 25% DMSO/buffer solution. The inhibitor from assay vials 2 and 3 is processed in a similar manner and placed in wells 5-12 respectively to afford a total of 12 different inhibitor concentrations. Four wells (wells 13-16) containing 90 μL of the 25% DMSO/buffer solution but no inhibitor are also run simultaneously with the inhibited wells as a control. 150 μL of substrate solution (prepared by the addition of 500 μL of the human leukocyte elastase (HLE) substrate MeOSuc-Ala-Ala-Pro-Val-pNA (18.7 mM in DMSO) to 19.5 mL of buffer solution) is then added simultaneously into each of the 16 wells and the solution in each well was thoroughly mixed.
The 96-well microtiter plate is placed into a Microplate Reader #89815A spectrophotometer and 110 μL of the enzyme solution (prepared as follows: a mixture of 20 mL of buffer solution and 20 mg of bovine serum albumen is gently vortexed in a scintillation vial and 5 μL HLE stock solution (1 mg/mL dissolved in deionized water) is added) is added simultaneously to each of the 16 wells. Each of the solutions in the wells is throughly mixed and then the time-dependent absorbance data is collected at an absorbance of 410 nm until the assay is complete. It should be noted that although this assay method can be done manually, it is preferred to perform the assay robotically using a Hewlett Packard MicroAssay System Robot. the absorbance versus time data thus obtained affords curves the final slope of which is equal to the final steady-statevelocities (VF). Using the program ENZFITTER (Elsevier software), the progress curves for the four control assays ([I]=0 are fit by linear regression to yield the enzyme reaction velocity values in the absences of inhibitor (Vo) which are averaged to produce a single fixed value. The inhibition constant Ki (nM) is then obtained from a plot of [formula] which affords a linear plot wherein: [formula] and [S] is the concentration of the substrate and Km is the Michaelis constant.
Table I summarizes the results obtained from the testing of compounds of the invention for human leukocyte elastase inhibitory activity.
In turn, `COc1cc(C(C)C)c2c(c1)S(=O)(=O)N(COc1cc(C(F)(F)F)nn1-c1ccc(Cl)nn1)C2=O` [32 (c), 4-isopropyl-6-methoxy-2-[1-(3-chloropyridazin-6-yl)-3-trifluoromethylpyrazol-5-yl-oxymethyl]-1,2-benzisothiazol-3(2H)-one 1,1-dioxide] gave a Ki of 0.055 nM. This counts as picomolar. In turn, `COc1cc(C(C)C)c2c(c1)S(=O)(=O)N(COc1cc(C(F)(F)F)nn1-c1ncc(Cl)cc1C(F)(F)F)C2=O` [34 (b), 4-isopropyyl-6-methoxy-2-[1-(5-chloro-3-trifluoromethyl-2-pyridyl)-3-trifluoromethylpyrazol-5-yl-oxymethyl]-1,2-benzisothiazol-3(2H)-one 1,1-dioxide] registered a Ki of 0.027 nM. As for `COc1cc(C(C)C)c2c(c1)S(=O)(=O)N(COc1cc(Br)nn1-c1ccccc1)C2=O` [52 (b), 4-isopropyl-6-methoxy-2-[1-phenyl-3-bromopyrazol-5-yl-oxymethyl]-1,2-benzisothiazol-3(2H)-one 1,1-dioxide], the figure is 0.066 nM; as for `COc1cc(C(C)C)c2c(c1)S(=O)(=O)N(COc1cc(C(F)(F)F)nn1-c1ccncc1)C2=O` [22 (b), 4-isopropyl-6-methoxy-2-[1-(4-pyridyl)-3-trifluoromethylpyrazol-5-yl-oxymethyl]-1,2-benzisothiazol-3(2H)-one 1,1-dioxide], 0.18 nM; as for `CCN(CC)Cc1ccc(COc2cc(C(C)C)c3c(c2)S(=O)(=O)N(COc2cc(C(F)(F)F)nn2-c2ccccc2)C3=O)o1` [29 (b)], 0.082 nM. As to `COc1cc(C(C)C)c2c(c1)S(=O)(=O)N(COc1cc(C(=O)NCCN3CCCC3)nn1-c1ccccc1)C2=O` [23 (b), 4-isopropyl-6-methoxy-2-[1-phenyl-3-(C(O)NH(CH2)2-1-pyrrolidinyl)pyrazol-5-yl-oxymethyl]-1,2-benzisothiazol-3(2H)-one 1,1-dioxide], the inhibition constant (Ki) is 0.065 nM. Compound `COc1cc(C(C)C)c2c(c1)S(=O)(=O)N(COc1cc(C(F)(F)F)nn1-c1ccccn1)C2=O` [10 (b), 4-isopropyl-6-methoxy-2-[1-(2-pyridyl)-3-trifluoromethylpyrazol-5-yl-oxymethyl]-1,2-benzisothiazol-3(2H)-one 1,1-dioxide] came in with a Ki of 0.024 nM. As for `COc1cc(C(C)C)c2c(c1)S(=O)(=O)N(COc1cc(C)nn1C)C2=O` [Example 1, 4-isopropyl-6-methoxy-2-(1,3-dimethylpyrazol-5-yl-oxymethyl)-1,2-benzisothiazol-3(2H)-one 1,1-dioxide], the figure is 0.73 nM; as for `COc1cc(C(C)C)c2c(c1)S(=O)(=O)N(COc1cc(C(F)(F)F)nn1-c1cccc(Cl)c1)C2=O` [51 (b), 4-isopropyl-6-methoxy-2-[1-(3-chlorophenyl)-3-trifluoromethylpyrazol-5-yl-oxymethyl]-1,2-benzisothiazol-3(2H)-one 1,1-dioxide], 0.13 nM. As for `COc1cc(C(C)C)c2c(c1)S(=O)(=O)N(COc1cc(C)nn1-c1ccccc1)C2=O` [4 (b), 4-isopropyl-6-methoxy-2-(1-phenyl-3-methylpyrazol-5-yl-oxymethyl)-1,2-benzisothiazol-3(2H)-one 1,1-dioxide], the figure is 0.44 nM; as for `CC(C)c1cc(OCc2ccc(CN(C)C)o2)cc2c1C(=O)N(COc1cc(C(F)(F)F)nn1-c1ccccc1)S2(=O)=O` [Example 13], 0.12 nM. The figure for `COc1cc(C(C)C)c2c(c1)S(=O)(=O)N(COc1cc(C#N)nn1-c1ccc(Cl)cc1Cl)C2=O` [50 (b), 4-isopropyl-6-methoxy-2-[1-(2,4-dichlorophenyl)-3-cyanopyrazol-5-yl-oxymethyl]-1,2-benzisothiazol-3(2H)-one 1,1-dioxide] is 0.058 nM; for `COc1ccc(COC(=O)c2ccc(COc3cc(C(C)C)c4c(c3)S(=O)(=O)N(COc3cc(C(F)(F)F)nn3-c3ccccc3)C4=O)o2)cc1` [42 (b)] it is 0.081 nM. Turning to `COc1cc(C(C)C)c2c(c1)S(=O)(=O)N(COc1cc(C(F)(F)F)nn1-c1cccnc1)C2=O` [20 (c), 4-isopropyl-6-methoxy-2-[1-(3-lpyridyl)-3-(trifluoromethyl)pyrazol-5-yl-oxymethyl]-1,2-benzisothiazol-3(2H)-one 1,1-dioxide], the affinity corresponds to a Ki of 0.037 nM. Take `COc1cc(C(C)C)c2c(c1)S(=O)(=O)N(COc1cc(C#N)nn1-c1ccccc1)C2=O` [Example 35, 4-isopropyl-6-methoxy-2-(1-phenyl-3-cyanopyrazol-5-yl-oxymethyl)-1,2-benziso thiazol-3(2H)-one 1,1-dioxide]: the affinity, expressed as Ki, was 0.014 nM. Turning to `CCOC(=O)c1cc(OCN2C(=O)c3c(C(C)C)cc(OC)cc3S2(=O)=O)n(-c2ccccc2)n1` [Example 12, 4-isopropyl-6-methoxy-2-(1-phenyl-3-ethoxycarbonylpyrazol-5-yl-oxymethyl)-1,2-benzisothiazol-3(2H)-one 1,1-dioxide], the Ki was 0.077 nM. Against the preceding compound, the Ki is about 5.5-fold higher.

`CC(C)c1cc(OCCCC(=O)O)cc2c1C(=O)N(COc1cc(C(F)(F)F)nn1-c1ccc(Cl)cc1)S2(=O)=O` [39 (c), 4-isopropyl-6-[3-(carboxy)propoxy]-2-[1-(4-chlorophenyl)-3-trifluoromethylpyrazol-5-yl-oxymethyl]-1,2-benzisothiazol-3(2H)-one 1,1-dioxide]: the affinity corresponds to a Ki of 0.074 nM. `COc1cc(C(C)C)c2c(c1)S(=O)(=O)N(COc1cc(C(F)(F)F)nn1-c1ncccc1C)C2=O` [45 (b), 4-isopropyl-6-methoxy-2-[1-(3-methyl-2-pyridyl)-3-trifluoromethylpyrazol-5-yl-oxymethyl]-1,2-benzisothiazol-3(2H)-one 1,1-dioxide] showed a Ki of 0.061 nM. The Ki values of the last two compounds are within 1.5-fold of each other. Turning to `CC(C)c1cc(OCC(C)(C)C(=O)O)cc2c1C(=O)N(COc1cc(C(F)(F)F)nn1-c1ccccc1)S2(=O)=O` [18 (b), 4-isopropyl-6-[2-(carboxy-2-methyl)propoxy]-2-(1-phenyl-3-trifluoromethylpyrazol-5-yl-oxymethyl)-1,2-benzisothiazol-3(2H)-one 1,1-dioxide], the Ki came to 0.22 nM. As for `COc1cc(C(C)C)c2c(c1)S(=O)(=O)N(COc1cc(C(=O)O)nn1-c1ccccc1)C2=O` [Example 21, 4-isopropyl-6-methoxy-2-[1-phenyl-3-(carboxy)pyrazol-5-yl-oxymethyl]-1,2-benzisothiazol-3(2H)-one 1,1-dioxide], the figure is 0.31 nM.

`COc1cc(C(C)C)c2c(c1)S(=O)(=O)N(COc1cc(C(F)(F)F)nn1-c1ccccc1)C2=O` [Example 3, 4-isopropyl-6-methoxy-2-(1-phenyl-3-trifluoromethylpyrazol-5-yl-oxymethyl)-1,2-benzisothiazol-3(2H)-one 1,1-dioxide] returned a Ki of 0.068 nM. As for `COc1cc(C(C)C)c2c(c1)S(=O)(=O)N(COc1cc(C(F)(F)F)nn1-c1ccc(Cl)cc1)C2=O` [8 (b), 4-isopropyl-6-methoxy-2-[1-(4-chlorophenyl)-3-trifluoromethylpyrazol-5-yl-oxymethyl]-1,2-benzisothiazol-3(2H)-one 1,1-dioxide], the figure is 0.11 nM; as for `COc1cc(C(C)C)c2c(c1)S(=O)(=O)N(COc1cc(C(F)(F)F)nn1Cc1ccccc1)C2=O` [Example 48, 4-isopropyl-6-methoxy-2-[1-benzyl-3-trifluoromethylpyrazol-5-yl-oxymethyl]-1,2-benzisothiazol-3(2H)-one 1,1-dioxide], 39 nM.

On to `COc1cc(C(C)C)c2c(c1)S(=O)(=O)N(COc1cc(C(F)(F)F)nn1-c1ccc([N+](=O)[O-])cc1)C2=O` [11 (c), 4-isopropyl-6-methoxy-2-[1-(4-nitrophenyl)-3-trifluoromethylpyrazol-5-yl-oxymethyl)-1,2-benzisothiazol-3(2H)-one 1,1-dioxide], for which the affinity corresponds to a Ki of 0.089 nM. The figure for `COc1cc(C(C)C)c2c(c1)S(=O)(=O)N(COc1cc(C(=O)OC(C)(C)C)nn1-c1ccccc1)C2=O` [33 (b), 4-isoorooyl-6-methoxy-2-[1-phenyl-3-(t-butoxycarbonyl)pyrazol-5-yl-oxymethyl]-1,2-benzisothiazol-23 (2H)-one 1,1-dioxide] is 0.1 nM; for `COc1cc(C(C)C)c2c(c1)S(=O)(=O)N(COc1cc(-c3c(F)c(F)c(F)c(F)c3F)nn1-c1ccccc1)C2=O` [19 (c)] it is 0.82 nM.
